Converted amounts (≈) assume the structure as drawn. The source made the active and inactive calls. The rule behind the calls is not given here.
What was measured:
[1] = Cytotoxicity against human HUVEC cells assessed as cell viability measured after 24 hrs by CCK-8 assay; assay type: toxicity, cell-based
Candida albicans [2] = experiment: In vivo antifungal activity against Candida albicans SC5314 infected in C57BL/6J mouse assessed as reduction in fungal burden in kidney at 10 mg/kg, po treated once a day for 2 days; assay type: functional, organism-based; settings: time 2.0 day
[Candida] auris [3] = Antifungal activity against FCZ-resistant Candida auris 918 assessed as growth inhibition measured after 48 hrs incubation by CLSI based micro-dilution broth method; assay type: functional; settings: Candidozyma auris
Candida albicans [4] = experiment: Antifungal activity against FCZ-resistant Candida albicans strain 901 assessed as growth inhibition in presence of fluconazole measured after 48 hrs incubation by CLSI based micro-dilution broth method; assay type: functional
Pichia kudriavzevii = experiment: Antifungal activity against Candida krusei 4996 assessed as growth inhibition measured after 48 hrs incubation by CLSI based micro-dilution broth method; assay type: functional
[5] = Hemolytic activity in rabbit Red blood cell assessed as hemolysis rate at 64 microg/ml incubated for 1 hr; assay type: toxicity, cell-based, Oryctolagus cuniculus, Erythrocyte; settings: red blood cells, at 64 µg/mL, read-out: Activity
Nakaseomyces glabratus = experiment: Antifungal activity against Candida glabrata 537 assessed as growth inhibition measured after 48 hrs incubation by CLSI based micro-dilution broth method; assay type: functional
Candida albicans [6] = experiment: Synergistic antifungal activity against FCZ-resistant Candida albicans strain 901 assessed as fractional inhibitory concentration index measured after 48 hrs in presence of FCZ by CLSI based micro-dilution broth method; assay type: functional
Candida parapsilosis = experiment: Antifungal activity against Candida parapsilosis 22019 assessed as growth inhibition measured after 48 hrs incubation by CLSI based micro-dilution broth method; assay type: functional; settings: Lodderomyces parapsilosis
Cryptococcus neoformans = experiment: Antifungal activity against Cryptococcus neoformans 32609 assessed as growth inhibition measured after 48 hrs incubation by CLSI based micro-dilution broth method; assay type: functional
Candida albicans [7] = experiment: Antifungal activity against FCZ-resistant Candida albicans SC5314 assessed as growth inhibition measured after 48 hrs incubation by CLSI based micro-dilution broth method; assay type: functional
Candida albicans [8] = experiment: Synergistic antifungal activity against FCZ-resistant Candida albicans strain 904 assessed as fractional inhibitory concentration index measured after 48 hrs in presence of FCZ by CLSI based micro-dilution broth method; assay type: functional
Candida albicans [9] = experiment: Antifungal activity against FCZ-resistant Candida albicans strain 904 assessed as growth inhibition measured after 48 hrs incubation by CLSI based micro-dilution broth method; assay type: functional
Candida tropicalis = experiment: Antifungal activity against Candida tropicalis 8915 assessed as growth inhibition measured after 48 hrs incubation by CLSI based micro-dilution broth method; assay type: functional
Candida albicans [10] = experiment: Antifungal activity against FCZ-resistant Candida albicans 10231 assessed as growth inhibition measured after 48 hrs incubation by CLSI based micro-dilution broth method; assay type: functional
[11] = Cytotoxicity against human HUVEC cells assessed as cell viability at 16 microg/ml measured after 24 hrs by CCK-8 assay relative to control; assay type: toxicity, cell-based; settings: at 16 µg/mL, read-out: Activity
Candida albicans [12] = experiment: Antifungal activity against FCZ-resistant Candida albicans strain 904 assessed as growth inhibition in presence of fluconazole measured after 48 hrs incubation by CLSI based micro-dilution broth method; assay type: functional
[Candida] auris [13] = Antifungal activity against FCZ-resistant Candida auris 919 assessed as growth inhibition measured after 48 hrs incubation by CLSI based micro-dilution broth method; assay type: functional; settings: Candidozyma auris
Candida albicans [14] = experiment: Antifungal activity against FCZ-resistant Candida albicans strain 901 assessed as growth inhibition measured after 48 hrs incubation by CLSI based micro-dilution broth method; assay type: functional

SMILES | IC50 at 24 h [1] | Activity (Candida albicans [2]) | MIC80 ([Candida] auris [3]) | MIC80 (Candida albicans [4]) | MIC80 (Pichia kudriavzevii) | hemolysis at 1 h, 64 microg/ml [5] | MIC80 (Nakaseomyces glabratus) | fractional inhibitory concentration index (FICI) (Candida albicans [6]) | MIC80 (Candida parapsilosis) | MIC80 (Cryptococcus neoformans) | MIC80 (Candida albicans [7]) | fractional inhibitory concentration index (FICI) (Candida albicans [8]) | MIC80 (Candida albicans [9]) | MIC80 (Candida tropicalis) | MIC80 (Candida albicans [10]) | viability at 24 h, 16 microg/ml [11] | MIC80 (Candida albicans [12]) | MIC80 ([Candida] auris [13]) | MIC80 (Candida albicans [14])
NCCOCCOCCNC(=O)Cc1ccc(Nc2nc(NCc3ccc(F)cc3)nc(NCC3CCCCC3)n2)cc1 | 48.2 µg/mL (≈ 81.1 µM) | Active | 32 µg/mL (≈ 53.8 µM) | 16 µg/mL | 32 µg/mL (≈ 53.8 µM) | 3.48% | 32 µg/mL (≈ 53.8 µM) | 0.63 | 32 µg/mL (≈ 53.8 µM) | 16 µg/mL (≈ 26.9 µM) | 16 µg/mL (≈ 26.9 µM) | 0.38 | 32 µg/mL (≈ 53.8 µM) | 32 µg/mL (≈ 53.8 µM) | 32 µg/mL (≈ 53.8 µM) | 89.8% | 8 µg/mL | 32 µg/mL (≈ 53.8 µM) | 
O=[N+]([O-])c1ccc(O)c(/C=N/Nc2nc(NCc3ccc(F)cc3)nc(NCc3ccco3)n2)c1 |  |  | 2 µg/mL (≈ 4.18 µM) |  | 1 µg/mL (≈ 2.09 µM) |  | 1 µg/mL (≈ 2.09 µM) |  | 2 µg/mL (≈ 4.18 µM) | 2 µg/mL (≈ 4.18 µM) | 2 µg/mL (≈ 4.18 µM) |  |  | 2 µg/mL (≈ 4.18 µM) | 8 µg/mL (≈ 16.7 µM) |  |  | 4 µg/mL (≈ 8.36 µM) | 
COc1ccc(Nc2nc(NCc3ccco3)nc(N/N=C/c3cc([N+](=O)[O-])ccc3O)n2)cc1 |  |  | 8 µg/mL (≈ 16.8 µM) |  | 1 µg/mL (≈ 2.1 µM) |  | 0.5 µg/mL (≈ 1.05 µM) |  | 4 µg/mL (≈ 8.4 µM) | 2 µg/mL (≈ 4.2 µM) | 2 µg/mL (≈ 4.2 µM) |  |  | 4 µg/mL (≈ 8.4 µM) | 8 µg/mL (≈ 16.8 µM) |  |  | 8 µg/mL (≈ 16.8 µM) | 
O=[N+]([O-])c1ccc(O)c(/C=N/Nc2nc(NCc3ccc(F)cc3)nc(Nc3ccc(F)cc3)n2)c1 |  |  | 8 µg/mL (≈ 16.2 µM) |  | 1 µg/mL (≈ 2.03 µM) |  | 0.5 µg/mL (≈ 1.02 µM) |  | 8 µg/mL (≈ 16.2 µM) | 2 µg/mL (≈ 4.06 µM) | 2 µg/mL (≈ 4.06 µM) |  |  | 2 µg/mL (≈ 4.06 µM) | 8 µg/mL (≈ 16.2 µM) |  |  | 32 µg/mL (≈ 65 µM) | 
O=[N+]([O-])c1ccc(/C=N/Nc2nc(NCc3ccc(F)cc3)nc(NCc3ccc(F)cc3)n2)c(O)c1 |  |  | > 64 µg/mL | 0.5 µg/mL | > 64 µg/mL |  | 2 µg/mL (≈ 3.95 µM) | 0.38 | > 64 µg/mL | > 64 µg/mL | > 64 µg/mL | 0.38 | 2 µg/mL (≈ 3.95 µM) | > 64 µg/mL | > 64 µg/mL |  | 0.5 µg/mL | > 64 µg/mL | 2 µg/mL (≈ 3.95 µM)
O=[N+]([O-])c1ccc(O)c(/C=N/Nc2nc(NCc3ccc(F)cc3)nc(NCC3CCCCC3)n2)c1 |  |  | 4 µg/mL (≈ 8.09 µM) |  | 1 µg/mL (≈ 2.02 µM) |  | 1 µg/mL (≈ 2.02 µM) |  | 2 µg/mL (≈ 4.04 µM) | 2 µg/mL (≈ 4.04 µM) | 2 µg/mL (≈ 4.04 µM) |  |  | 2 µg/mL (≈ 4.04 µM) | 16 µg/mL (≈ 32.4 µM) |  |  | 8 µg/mL (≈ 16.2 µM) | 
COc1ccc(Nc2nc(NCc3ccc(F)cc3)nc(N/N=C/c3cc([N+](=O)[O-])ccc3O)n2)cc1 |  |  | 32 µg/mL (≈ 63.4 µM) |  | 1 µg/mL (≈ 1.98 µM) |  | 0.5 µg/mL (≈ 0.991 µM) |  | 8 µg/mL (≈ 15.9 µM) | 2 µg/mL (≈ 3.96 µM) | 2 µg/mL (≈ 3.96 µM) |  |  | 2 µg/mL (≈ 3.96 µM) | 16 µg/mL (≈ 31.7 µM) |  |  | 32 µg/mL (≈ 63.4 µM) | 
O=[N+]([O-])c1ccc(O)c(/C=N/Nc2nc(N3CCOCC3)nc(N3CCOCC3)n2)c1 |  |  | > 64 µg/mL |  | > 64 µg/mL |  | > 64 µg/mL |  | > 64 µg/mL | > 64 µg/mL | > 64 µg/mL |  |  | > 64 µg/mL | > 64 µg/mL |  |  | > 64 µg/mL | 
O=[N+]([O-])c1ccccc1/C=N/Nc1nc(NCc2ccc(F)cc2)nc(NCc2ccc(F)cc2)n1 |  |  |  | > 64 µg/mL |  |  |  | 1.13 |  |  |  | 1.13 | > 64 µg/mL |  |  |  | > 64 µg/mL |  | > 64 µg/mL

— ChEMBL document CHEMBL5528067, “From Synergy to Monotherapy: Discovery of Novel 2,4,6-Trisubstituted Triazine Hydrazone Derivatives with Potent Antifungal Potency In Vitro and In Vivo” (J Med Chem, 2024)
